Laboratory results reported in patent US8367838B2, “Amines or amino alcohols as GLYT1 inhibitors” (Hoffmann-La Roche Inc., priority 2009, dated 2013).
Structures can show the parent of a compound that is named as a salt.

target: T1, mGlyT-1b (Mus musculus, UniProt P28571); experiment: Glycine uptake inhibition assay (mGlyT-1b), [3H]-glycine uptake in transfected Flp-in-CHO cells; format: cell-based; settings: Flp-in-CHO cells transfected with mGlyT-1b cDNA; [3H]-glycine 60 nM and 25 μM non-radioactive glycine; 20 min preincubation at 22° C.; read-out: IC50 (μM) at GlyT-1; Ic50 (hglyt1b)
T1 construct: host or cells: Flp-in-CHO
T1 sequence (P28571 1-651 isoform P28571-2): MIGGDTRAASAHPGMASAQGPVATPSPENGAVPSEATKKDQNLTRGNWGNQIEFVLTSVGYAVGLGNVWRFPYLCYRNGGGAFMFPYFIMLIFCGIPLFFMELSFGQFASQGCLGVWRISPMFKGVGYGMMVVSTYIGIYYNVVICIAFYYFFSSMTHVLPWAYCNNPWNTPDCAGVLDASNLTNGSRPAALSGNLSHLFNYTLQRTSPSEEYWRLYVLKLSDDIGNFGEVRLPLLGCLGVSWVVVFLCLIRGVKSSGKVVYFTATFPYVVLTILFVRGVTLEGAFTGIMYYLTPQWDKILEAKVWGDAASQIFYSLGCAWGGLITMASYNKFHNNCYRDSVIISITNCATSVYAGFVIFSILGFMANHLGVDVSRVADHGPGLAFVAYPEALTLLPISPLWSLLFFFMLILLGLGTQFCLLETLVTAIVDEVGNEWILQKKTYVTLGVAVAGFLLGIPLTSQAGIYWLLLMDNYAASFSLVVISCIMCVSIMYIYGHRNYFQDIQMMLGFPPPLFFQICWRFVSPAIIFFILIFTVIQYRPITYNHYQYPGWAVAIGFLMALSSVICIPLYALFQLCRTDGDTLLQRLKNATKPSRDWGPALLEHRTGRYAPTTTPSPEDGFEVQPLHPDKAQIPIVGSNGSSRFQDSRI
In short: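 Flp-in CHO cells stably expressing mouse GlyT-1b were preincubated 20 min at 22 °C with inhibitor in pH 7.4 Hepes-Tris buffer. Uptake was then run with 60 nM [3H]-glycine plus 25 μM unlabeled glycine, with 10 mM glycine defining nonspecific uptake. Cell radioactivity was counted by scintillation to derive IC50.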

SMILES	IC50 [µM]
CC(C)Oc1ccc([C@@H](O)[C@@H](N)c2ccc(Cl)cc2)cc1 (racemic) [Example 10, rac-erythro-[2-Amino-2-(4-chloro-phenyl)-1-(4-isopropoxy-phenyl)-ethanol hydrochloride]	0.188
Cc1ccc([C@H](N)[C@H](O)c2ccc(-c3cncc(F)c3)cc2)cc1F (racemic) [Example 94, rac-erythro-2-Amino-2-(3-fluoro-4-methyl-phenyl)-1-[4-(5-fluoro-pyridin-3-yl)-phenyl]-ethanol]	0.104
N[C@@H](c1ccc(Cl)cc1)[C@H](O)c1ccc(OC2CCCCC2)cc1 (racemic) [Example 53, rac-erythro-2-Amino-2-(4-chloro-phenyl)-1-(4-cyclohexyloxy-phenyl)-ethanol]	1.03
CC(C)COc1ccc([C@@H](O)[C@@H](N)c2ccc(Cl)c(Cl)c2)cc1 (racemic) [Example 50, rac-erythro-2-Amino-2-(3,4-dichloro-phenyl)-1-(4-isobutoxy-phenyl)-ethanol]	0.549
N[C@@H](c1ccc(Cl)c(Cl)c1)[C@H](O)c1ccc(OC2CCOCC2)cc1 (racemic) [Example 40, rac-erythro-[2-Amino-2-(3,4-dichloro-phenyl)-1-[4-(tetrahydro-pyran-4-yloxy)-phenyl]-ethanol]	0.052
N[C@@H](c1ccc(Cl)cc1)[C@H](O)c1ccc(N2CCOCC2)nc1 (racemic) [Example 80, rac-erythro-2-Amino-2-(4-chloro-phenyl)-1-(6-morpholin-4-yl-pyridin-3-yl)-ethanol]	1.04
N[C@@H](c1ccc(Cl)c(F)c1)[C@H](O)c1ccc(-c2cccnc2)cc1 (racemic) [Example 84]	0.033
Cc1nc(OC2CCOC2)ccc1[C@@H](O)[C@@H](N)c1ccc(Cl)c(Cl)c1 (mixture of isomers) [Example 15, rac-erythro-[rac-2-Amino-2-(3,4-dichloro-phenyl)-1-[2-methyl-6-(tetrahydro-furan-3-yloxy)-pyridin-3-yl]-ethanoldihydrochloride]	0.021
COc1cccc(-c2cnc([C@@H](O)[C@@H](N)c3ccc(Cl)c(Cl)c3)c(F)c2)c1 (racemic) [Example 13, rac-erythro-[2-Amino-2-(3,4-dichloro-phenyl)-1-[3-fluoro-5-(3-methoxy-phenyl)-pyridin-2-yl]-ethanoldihydrochloride]	0.113
CN[C@@H](c1ccc(Cl)c(Cl)c1)[C@H](O)c1ccc(-c2cncc(F)c2)cc1 (racemic) [Example 39, rac-erythro-[2-(3,4-Dichloro-phenyl)-1-[4-(5-fluoro-pyridin-3-yl)-phenyl]-2-methylamino-ethanol hydrochloride]	0.208
NC(=O)c1cccc(-c2ccc([C@@H](O)[C@@H](N)c3ccc(Cl)c(Cl)c3)cc2)c1 (racemic) [Example 104, rac-erythro-4′-[2-Amino-2-(3,4-dichloro-phenyl)-1-hydroxy-ethyl]-biphenyl-3-carboxylic acid amide]	0.056
N[C@@H](c1ccc(Cl)c(Cl)c1)[C@H](O)c1ccc(OC2CCOC2)cc1F (mixture of isomers) [Example 16, rac-erythro-[rac-2-Amino-2-(3,4-dichloro-phenyl)-1-[2-fluoro-4-(tetrahydro-furan-3-yloxy)-phenyl]-ethanol hydrochloride]	0.039
N[C@@H](c1ccc(Cl)c(Cl)c1)[C@H](O)c1ccc(OCC2CC2)cc1 (racemic) [Example 49, rac-erythro-[2-Amino-1-(4-cyclopropylmethoxy-phenyl)-2-(3,4-dichloro-phenyl)-ethanol]	0.533
N[C@@H](c1ccc(Cl)c(Cl)c1)[C@H](O)c1ccc(OC(F)(F)C(F)F)cc1 (racemic) [Example 38, rac-erythro-[2-Amino-2-(3,4-dichlorophenyl)-1-[4-(1,1,2,2-tetrafluoro-ethoxy)-phenyl]-ethanol]	0.176
Cc1ccccc1-c1ccc([C@@H](O)[C@@H](N)c2ccc(Cl)cc2)cc1 (racemic) [Example 76, rac-erythro-2-Amino-2-(4-chloro-phenyl)-1-(2′-methyl-biphenyl-4-yl)-ethanol]	0.642
N[C@@H](c1ccc(Cl)c(Cl)c1)[C@H](O)c1ccc(OC2CCS(=O)(=O)CC2)cc1 (racemic) [Example 44, rac-erythro-[2-Amino-2-(3,4-dichloro-phenyl)-1-[4-(1,1-dioxo-hexahydro-1λ^6-thio-pyran-4-yloxy)-phenyl]-ethanol]	0.088
CS(=O)(=O)c1cccc(-c2ccc([C@@H](O)[C@@H](N)c3ccc(Cl)c(Cl)c3)nc2)c1 (racemic) [Example 11, rac-erythro-[2-Amino-2-(3,4-dichloro-phenyl)-1-[5-(3-methanesulfonyl-phenyl)-pyridin-2-yl]-ethanol bistrifluoroacetate]	0.097
Cc1nc(OC2CCOCC2)ccc1[C@@H](O)[C@@H](N)c1ccc(Cl)c(Cl)c1 (racemic) [Example 17, rac-erythro-[2-Amino-2-(3,4-dichloro-phenyl)-1-[2-methyl-6-(tetrahydro-pyran-4-yloxy)-pyridin-3-yl]-ethanoldihydrochloride]	0.043
Cc1cc(OC2CCOC2)ncc1[C@@H](O)[C@@H](N)c1ccc(Cl)c(Cl)c1 (mixture of isomers) [Example 24, rac-erythro-[(rac)-2-Amino-2-(3,4-dichloro-phenyl)-1-[4-methyl-6-(tetrahydro-furan-3-yloxy)-pyridin-3-yl]-ethanoldihydrochloride]	0.205
CS(=O)(=O)c1cccc(-c2ccc([C@@H](O)[C@@H](N)c3ccc(Cl)c(Cl)c3)cc2)c1 (racemic) [Example 7, rac-erythro-[2-Amino-2-(3,4-dichloro-phenyl)-1-(3′-methanesulfonyl-biphenyl-4-yl)-ethanol trifluoroacetate]	0.041
N[C@@H](c1ccc(Cl)cc1)[C@H](O)c1ccc(-c2cccnc2)cc1 (racemic) [Example 63, rac-erythro-2-Amino-2-(4-chloro-phenyl)-1-(4-pyridin-3-yl-phenyl)-ethanol hydrochloride]	0.09
N[C@@H](c1ccc(Cl)cc1)[C@H](O)c1ccc(-c2cncc(F)c2)cc1 (racemic) [Example 66, rac-erythro-2-Amino-2-(4-chloro-phenyl)-1-[4-(5-fluoro-pyridin-3-yl)-phenyl]-ethanol]	0.152
N[C@@H](c1ccc(Cl)c(Cl)c1)[C@H](O)c1ccc(OCC(O)CCCl)cc1F (mixture of isomers) [Example 29, rac-erythro-[1-[4-[(rac)-2-Amino-2-(3,4-dichloro-phenyl)-1-hydroxy-ethyl]-3-fluoro-phenoxy]-4-chloro-butan-2-ol hydrochloride]	0.462
